# Reference: patent publication US20220041681A1 (MEDIMMUNE LIMITED, priority 2016, published 2022)
# Test system: Healthy volunteer
# Experiment: Phase 1 single-ascending dose study
# Conditions: for TEAE: Abdominal distension / TEAE: Abdominal pain / TEAE: Application site erosion / TEAE: Arrhythmia / TEAE: Atrioventricular block second degree / TEAE: Cardiac Disorders / TEAE: Decreased appetite / TEAE: Diarrhea / TEAE: Dizziness / TEAE: Gastrointestinal Disorders / TEAE: Headache / TEAE: Immune System Disorders / TEAE: Injury associated with device / TEAE: Injury poisoning and procedural complications / TEAE: Metabolism and nutrition disorders / TEAE: Musculoskeletal and connective tissue disorders / TEAE: Musculoskeletal chest pain / TEAE: Nasopharyngitis / TEAE: Nausea / TEAE: Nervous system disorders / TEAE: Oropharyngeal pain / TEAE: Procedural dizziness / TEAE: Respiratory, thoracic and mediastinal disorders / TEAE: Seasonal allergy / TEAE: Subjects with at least one event / TEAE: Ventricular extrasystoles / TEAE: Vomiting: N = 6, subjects n (%)
smiles,measurement,setting,value
CCCCCCCCCCCCCCCC(=O)N[C@@H](CCC(=O)NCCCC[C@H](NC(=O)[C@H](CC(=O)O)NC(=O)[C@H](CO)NC(=O)C(NC(=O)[C@H](Cc1ccccc1)NC(=O)C(NC(=O)CNC(=O)[C@H](CCC(N)=O)NC(=O)[C@H](CO)NC(=O)[C@@H](N)Cc1cnc[nH]1)[C@@H](C)O)[C@@H](C)O)C(=O)N[C@@H](CO)C(=O)N[C@@H](CCC(=O)O)C(=O)N[C@@H](Cc1ccc(O)cc1)C(=O)N[C@@H](CC(C)C)C(=O)N[C@@H](CC(=O)O)C(=O)N[C@@H](CO)C(=O)N[C@@H](CCC(=O)O)C(=O)N[C@@H](CCCNC(=N)N)C(=O)N[C@@H](C)C(=O)N[C@@H](CCCNC(=N)N)C(=O)N[C@@H](CC(=O)O)C(=O)N[C@@H](Cc1ccccc1)C(=O)N[C@H](C(=O)N[C@@H](C)C(=O)N[C@@H](Cc1c[nH]c2ccccc12)C(=O)N[C@@H](CC(C)C)C(=O)N[C@@H](CCC(=O)O)C(=O)N[C@@H](C)C(=O)NCC(=O)NCC(=O)O)C(C)C)C(=O)O (stereo partly shown) [Peptide G933],TEAE: Abdominal distension,5 μg,0
same,TEAE: Abdominal pain,5 μg,0
same,TEAE: Application site erosion,5 μg,0
same,TEAE: Arrhythmia,5 μg,0
same,TEAE: Atrioventricular block second degree,5 μg,0
same,TEAE: Cardiac Disorders,5 μg,0
same,TEAE: Decreased appetite,5 μg,0
same,TEAE: Diarrhea,5 μg,0
same,TEAE: Dizziness,5 μg,0
same,TEAE: Gastrointestinal Disorders,5 μg,0
same,TEAE: Headache,5 μg,1 (16.7%)
same,TEAE: Immune System Disorders,5 μg,0
same,TEAE: Injury associated with device,5 μg,0
same,TEAE: Injury poisoning and procedural complications,5 μg,0
same,TEAE: Metabolism and nutrition disorders,5 μg,0
same,TEAE: Musculoskeletal and connective tissue disorders,5 μg,0
same,TEAE: Musculoskeletal chest pain,5 μg,0
same,TEAE: Nasopharyngitis,5 μg,1 (16.7%)
same,TEAE: Nausea,5 μg,0
same,TEAE: Nervous system disorders,5 μg,1 (16.7%)
same,TEAE: Oropharyngeal pain,5 μg,0
same,TEAE: Procedural dizziness,5 μg,0
same,"TEAE: Respiratory, thoracic and mediastinal disorders",5 μg,0
same,TEAE: Seasonal allergy,5 μg,0
same,TEAE: Subjects with at least one event,5 μg,2 (33.3%)
same,TEAE: Ventricular extrasystoles,5 μg,0
same,TEAE: Vomiting,5 μg,0
same,TEAE: Abdominal distension,10 μg,0
same,TEAE: Abdominal pain,10 μg,1 (16.7%)
same,TEAE: Application site erosion,10 μg,0
same,TEAE: Arrhythmia,10 μg,0
same,TEAE: Atrioventricular block second degree,10 μg,1 (16.7%)
same,TEAE: Cardiac Disorders,10 μg,1 (16.7%)
same,TEAE: Decreased appetite,10 μg,0
same,TEAE: Diarrhea,10 μg,1 (16.7%)
same,TEAE: Dizziness,10 μg,1 (16.7%)
same,TEAE: Gastrointestinal Disorders,10 μg,1 (16.7%)
same,TEAE: Headache,10 μg,0
same,TEAE: Immune System Disorders,10 μg,0
same,TEAE: Injury associated with device,10 μg,0
same,TEAE: Injury poisoning and procedural complications,10 μg,0
same,TEAE: Metabolism and nutrition disorders,10 μg,0
same,TEAE: Musculoskeletal and connective tissue disorders,10 μg,0
same,TEAE: Musculoskeletal chest pain,10 μg,0
same,TEAE: Nasopharyngitis,10 μg,0
same,TEAE: Nausea,10 μg,0
same,TEAE: Nervous system disorders,10 μg,1 (16.7%)
same,TEAE: Oropharyngeal pain,10 μg,0
same,TEAE: Procedural dizziness,10 μg,0
same,"TEAE: Respiratory, thoracic and mediastinal disorders",10 μg,0
same,TEAE: Seasonal allergy,10 μg,0
same,TEAE: Subjects with at least one event,10 μg,3 (50.0%)
same,TEAE: Ventricular extrasystoles,10 μg,0
same,TEAE: Vomiting,10 μg,0
same,TEAE: Abdominal distension,30 μg,0
same,TEAE: Abdominal pain,30 μg,0
same,TEAE: Application site erosion,30 μg,1 (16.7%)
same,TEAE: Arrhythmia,30 μg,0
same,TEAE: Atrioventricular block second degree,30 μg,0
same,TEAE: Cardiac Disorders,30 μg,0
same,TEAE: Decreased appetite,30 μg,0
same,TEAE: Diarrhea,30 μg,0
same,TEAE: Dizziness,30 μg,1 (16.7%)
same,TEAE: Gastrointestinal Disorders,30 μg,0
same,TEAE: Headache,30 μg,1 (16.7%)
same,TEAE: Immune System Disorders,30 μg,1 (16.7%)
same,TEAE: Injury associated with device,30 μg,0
same,TEAE: Injury poisoning and procedural complications,30 μg,1 (16.7%)
same,TEAE: Metabolism and nutrition disorders,30 μg,0
same,TEAE: Musculoskeletal and connective tissue disorders,30 μg,1 (16.7%)
same,TEAE: Musculoskeletal chest pain,30 μg,1 (16.7%)
same,TEAE: Nasopharyngitis,30 μg,0
same,TEAE: Nausea,30 μg,0
same,TEAE: Nervous system disorders,30 μg,1 (16.7%)
same,TEAE: Oropharyngeal pain,30 μg,0
same,TEAE: Procedural dizziness,30 μg,1 (16.7%)
same,"TEAE: Respiratory, thoracic and mediastinal disorders",30 μg,0
same,TEAE: Seasonal allergy,30 μg,1 (16.7%)
same,TEAE: Subjects with at least one event,30 μg,4 (66.7%)
same,TEAE: Ventricular extrasystoles,30 μg,0
same,TEAE: Vomiting,30 μg,0
same,vomiting episodes,"100 μg dose, 1 subject",1 episode
same,TEAE: Abdominal distension,100 μg,0
same,TEAE: Abdominal pain,100 μg,0
same,TEAE: Application site erosion,100 μg,0
same,TEAE: Arrhythmia,100 μg,1 (16.7%)
same,TEAE: Atrioventricular block second degree,100 μg,0
same,TEAE: Cardiac Disorders,100 μg,1 (16.7%)
same,TEAE: Decreased appetite,100 μg,0
same,TEAE: Diarrhea,100 μg,0
same,TEAE: Dizziness,100 μg,0
same,TEAE: Gastrointestinal Disorders,100 μg,1 (16.7%)
same,TEAE: Headache,100 μg,1 (16.7%)
same,TEAE: Immune System Disorders,100 μg,0
same,TEAE: Injury associated with device,100 μg,0
same,TEAE: Injury poisoning and procedural complications,100 μg,0
same,TEAE: Metabolism and nutrition disorders,100 μg,0
same,TEAE: Musculoskeletal and connective tissue disorders,100 μg,0
same,TEAE: Musculoskeletal chest pain,100 μg,0
same,TEAE: Nasopharyngitis,100 μg,0
same,TEAE: Nausea,100 μg,1 (16.7%)
same,TEAE: Nervous system disorders,100 μg,2 (33.3%)
same,TEAE: Oropharyngeal pain,100 μg,0
same,TEAE: Procedural dizziness,100 μg,0
same,"TEAE: Respiratory, thoracic and mediastinal disorders",100 μg,0
same,TEAE: Seasonal allergy,100 μg,0
same,TEAE: Ventricular extrasystoles,100 μg,0
same,TEAE: Vomiting,100 μg,1 (16.7%)
same,vomiting episodes,"150 μg dose, 4 subjects",9 episodes
same,TEAE: Abdominal distension,150 μg,2 (3.3%)
same,TEAE: Abdominal pain,150 μg,0
same,TEAE: Application site erosion,150 μg,0
same,TEAE: Arrhythmia,150 μg,0
same,TEAE: Atrioventricular block second degree,150 μg,0
same,TEAE: Cardiac Disorders,150 μg,0
same,TEAE: Decreased appetite,150 μg,2 (33.3%)
same,TEAE: Diarrhea,150 μg,0
same,TEAE: Dizziness,150 μg,2 (33.3%)
